Each structure is given as a SMILES string. ≈ marks a conversion by molar mass, not a printed value.

These results are taken from patent US4303664A, “Novel penicillin derivatives containing a coumarin nucleus and medicines containing the same” (Teijin Limited, priority 1978, dated 1981).

The test system of series [1] is Staphylococcus aureus 1248. Kind of series: Bactericidal test (MIC), Staphylococcus aureus 1248. The format is cell-based. The settings on record: (2) Staphylococcus aureus 1248; read-out: MIC. The text has this:
(§1) Results of bactericidal tests (MIC, r/ml) on the penicillin derivatives of this invention prepared in the above examples are shown in the following table.

Series [2] relates to Escherichia Coli NIHJ JC-2. The experiment in a line: Bactericidal test (MIC), Escherichia Coli NIHJ JC-2. The format is cell-based. The settings on record: NIHJJC2; (5) Escherichia Coli NIHJ JC-2.
From the text: as §1

Series [3] relates to Salmonella typhimurium G-20. Kind of series: Bactericidal test (MIC), Salmonella typhimurium G-20. The settings on record: Salmonella enterica; (4) Salmonella typhimurium G-20. The format is cell-based.
From the text: as §1

Series [4] has as its system Pseudomonas aeruginosa IFO-3080. Kind of series: Bactericidal test (MIC), Pseudomonas aeruginosa IFO-3080. The format is cell-based. The settings on record: IFO3080; (12) Pseudomonas aeruginosa IFO-3080; read-out: MIC.
From the text: as §1

Series [5] relates to Staphylococcus aureus 209-p. The experiment in a line: Bactericidal test (MIC), Staphylococcus aureus 209-p. The format is cell-based. The note with it: (1) Staphylococcus aureus 209-p.
From the text: as §1

The subject of series [6] is Pseudomonas aeruginosa Tid-53. Kind of series: Bactericidal test (MIC), Pseudomonas aeruginosa Tid-53. The format is cell-based. The settings on record: TID53; (14) Pseudomonas aeruginosa Tid-53.
From the text: as §1

The test system of series [7] is Morganella var. G-2. The experiment in a line: Bactericidal test (MIC), Morganella var. G-2. The format is cell-based. The settings on record: VAR.G2; (9) Morganella var. G-2; read-out: MIC.
From the text: as §1

Series [8] concerns Pseudomonas aeruginosa 0-37. The experiment in a line: Bactericidal test (MIC), Pseudomonas aeruginosa 0-37. The format is cell-based. The settings on record: 037; (13) Pseudomonas aeruginosa 0-37.
From the text: as §1

Series [9] has as its system Bacillus subtilis. The experiment in a line: Bactericidal test (MIC), Bacillus subtilis. The format is cell-based. The settings on record: (3) Bacillus subtilis.
From the text: as §1

In series [10] the test system is Klebsiella neumoniae ATCC10031. Kind of series: Bactericidal test (MIC), Klebsiella neumoniae ATCC10031. The format is cell-based. The settings on record: (6) Klebsiella neumoniae ATCC10031; read-out: MIC.
From the text: as §1

Series [11] is described as follows: Rates of protein fixation (human serum protein). The format is in vitro ADME. The settings on record: read-out: Rate of protein fixation (converted). The text has this: Rates of protein fixation (human serum protein) of the penicillin derivatives of this invention are illustrated as follows: […]
For series [12], the system named is Enterobacter cloacae IF012937. The experiment in a line: Bactericidal test (MIC), Enterobacter cloacae IF012937. The format is cell-based. The note with it: (8) Enterobacter cloacae IF012937.
From the text: as §1

Series [13] relates to Serratia G-18. The experiment in a line: Bactericidal test (MIC), Serratia G-18. The format is cell-based. The settings on record: G18; (11) Serratia G-18; read-out: MIC.
From the text: as §1

Series [14] has as its system Rettgerella var. Tid-21. Kind of series: Bactericidal test (MIC), Rettgerella var. Tid-21. The format is cell-based. The settings on record: (10) Rettgerella var. Tid-21; read-out: MIC.
From the text: as §1

Series [15] deals with Enterobactor cloacae 147. Kind of series: Bactericidal test (MIC), Enterobactor cloacae 147. The format is cell-based. The note with it: (7) Enterobactor cloacae 147.
From the text: as §1

Series [16] relates to Pseudomonas aeruginosa 130. The experiment in a line: Bactericidal test (MIC), Pseudomonas aeruginosa 130. The format is cell-based. The settings on record: (16) Pseudomonas aeruginosa 130.
From the text: as §1

Series [17] can be described thus: Acute toxicity values [(LD50), mouse]. The settings on record: in vivo. The text has this:
Acute toxicity values [(LD50), mouse] of some penicillin derivatives of this invention are illustrated in the following table.

Series [18] has as its system Pseudomonas aeruginosa GN-315. The experiment in a line: Bactericidal test (MIC), Pseudomonas aeruginosa GN-315. The format is cell-based. The settings on record: GN315; (15) Pseudomonas aeruginosa GN-315.
From the text: as §1

What is called MIC is the lowest concentration found to suppress growth. In general, LD50 refers to the dose expected to kill half of the subjects tested. Take `CC(=O)Oc1ccc2oc(=O)c(C(=O)N[C@@H](C(=O)N[C@@H]3C(=O)N4[C@@H]3SC(C)(C)[C@@H]4C(=O)O)c3ccccc3)cc2c1` [Example 9, D(-)-α-(6-Acetoxycoumarin-3-carbonamido)benzylpenicillin]: the MIC in series [1] was 3.13 µg/mL (≈ 5.4 µM); in series [2], below 0.4 µg/mL; in [3], below 0.4 µg/mL; in series [4], 0.8 µg/mL (≈ 1.38 µM); in [5] it was below 0.4 µg/mL; in series [6] it was 6.25 µg/mL (≈ 10.8 µM). The MIC in [7] was 6.25 µg/mL (≈ 10.8 µM); in series [8] it was 25 µg/mL (≈ 43.1 µM); in [9] it was below 0.4 µg/mL; in [10], below 0.4 µg/mL; in [12], 25 µg/mL (≈ 43.1 µM); in series [13], 25 µg/mL (≈ 43.1 µM). Besides, the MIC in [14] was 3.13 µg/mL (≈ 5.4 µM); in series [15] it was 3.13 µg/mL (≈ 5.4 µM); in series [16], below 0.4 µg/mL; in series [18], 6.25 µg/mL (≈ 10.8 µM). Also, the fraction unbound in [11] is 0.2. The LD50 in [17] (Oral) was above 4000 mg/kg; in series [17] (ip, Intraabdominal), 2000 mg/kg.
For `CC1(C)S[C@@H]2[C@H](NC(=O)[C@H](NC(=O)c3cc4cc(Cl)ccc4oc3=O)c3ccccc3)C(=O)N2[C@H]1C(=O)O` [Example 2, D(-)-α-(6-Chlorocoumarin-3-carbonamido)benzylpenicillin], the MIC in series [1] was 1.56 µg/mL (≈ 2.81 µM); in [2] it was below 0.4 µg/mL; in [3], below 0.4 µg/mL; in [4] it was 3.13 µg/mL (≈ 5.63 µM); in series [5], below 0.4 µg/mL; in [6] it was 25 µg/mL (≈ 45 µM). Moreover, the MIC is 12.5 µg/mL (≈ 22.5 µM) in series [7]; 50 µg/mL (≈ 89.9 µM) in series [8]; below 0.4 µg/mL in [9]; 1.56 µg/mL (≈ 2.81 µM) in series [10]; 25 µg/mL (≈ 45 µM) in series [12]; 50 µg/mL (≈ 89.9 µM) in series [13]. The MIC in [14] stood at 12.5 µg/mL (≈ 22.5 µM); in series [15], 25 µg/mL (≈ 45 µM); in [16], 6.25 µg/mL (≈ 11.2 µM); in series [18], 25 µg/mL (≈ 45 µM). In addition, the fraction unbound in series [11] is 0.33.
Consider `COc1cccc2cc(C(=O)N[C@@H](C(=O)N[C@@H]3C(=O)N4[C@@H]3SC(C)(C)[C@@H]4C(=O)O)c3ccccc3)c(=O)oc12` [Example 6, D(-)-α-(8-Methoxycoumarin-3-carbonamido)benzylpenicillin], for which the MIC in [1] was 0.8 µg/mL (≈ 1.45 µM); in [2], below 0.4 µg/mL; in series [3], below 0.4 µg/mL; in series [4] it was 0.8 µg/mL (≈ 1.45 µM); in series [5], below 0.4 µg/mL; in [6] it was 6.25 µg/mL (≈ 11.3 µM). The MIC in [7] is 0.8 µg/mL (≈ 1.45 µM); in series [8], 12.5 µg/mL (≈ 22.7 µM); in [9], below 0.4 µg/mL; in [10], 0.8 µg/mL (≈ 1.45 µM); in series [12], 6.25 µg/mL (≈ 11.3 µM); in [13], 6.25 µg/mL (≈ 11.3 µM). Also, the minimal inhibitory concentration (MIC) in series [14] stood at 3.13 µg/mL (≈ 5.67 µM); in [15], 3.13 µg/mL (≈ 5.67 µM); in [16] it was 1.56 µg/mL (≈ 2.83 µM); in series [18], 3.13 µg/mL (≈ 5.67 µM). Moreover, the fraction unbound in [11] is 0.42. Besides, the LD50 was above 4000 mg/kg in [17] (Oral) and 2000 mg/kg in series [17] (ip, Intraabdominal).
